The source of these data is ChEMBL document CHEMBL5465560, “Selectivity Literature for EUbOPEN Chemogenomic Library” (2024).

Experiment [1] concerns the target T1, Serine/threonine-protein kinase Nek1 (Homo sapiens) (UniProt Q96PY6).
T1 sequence (whole entry): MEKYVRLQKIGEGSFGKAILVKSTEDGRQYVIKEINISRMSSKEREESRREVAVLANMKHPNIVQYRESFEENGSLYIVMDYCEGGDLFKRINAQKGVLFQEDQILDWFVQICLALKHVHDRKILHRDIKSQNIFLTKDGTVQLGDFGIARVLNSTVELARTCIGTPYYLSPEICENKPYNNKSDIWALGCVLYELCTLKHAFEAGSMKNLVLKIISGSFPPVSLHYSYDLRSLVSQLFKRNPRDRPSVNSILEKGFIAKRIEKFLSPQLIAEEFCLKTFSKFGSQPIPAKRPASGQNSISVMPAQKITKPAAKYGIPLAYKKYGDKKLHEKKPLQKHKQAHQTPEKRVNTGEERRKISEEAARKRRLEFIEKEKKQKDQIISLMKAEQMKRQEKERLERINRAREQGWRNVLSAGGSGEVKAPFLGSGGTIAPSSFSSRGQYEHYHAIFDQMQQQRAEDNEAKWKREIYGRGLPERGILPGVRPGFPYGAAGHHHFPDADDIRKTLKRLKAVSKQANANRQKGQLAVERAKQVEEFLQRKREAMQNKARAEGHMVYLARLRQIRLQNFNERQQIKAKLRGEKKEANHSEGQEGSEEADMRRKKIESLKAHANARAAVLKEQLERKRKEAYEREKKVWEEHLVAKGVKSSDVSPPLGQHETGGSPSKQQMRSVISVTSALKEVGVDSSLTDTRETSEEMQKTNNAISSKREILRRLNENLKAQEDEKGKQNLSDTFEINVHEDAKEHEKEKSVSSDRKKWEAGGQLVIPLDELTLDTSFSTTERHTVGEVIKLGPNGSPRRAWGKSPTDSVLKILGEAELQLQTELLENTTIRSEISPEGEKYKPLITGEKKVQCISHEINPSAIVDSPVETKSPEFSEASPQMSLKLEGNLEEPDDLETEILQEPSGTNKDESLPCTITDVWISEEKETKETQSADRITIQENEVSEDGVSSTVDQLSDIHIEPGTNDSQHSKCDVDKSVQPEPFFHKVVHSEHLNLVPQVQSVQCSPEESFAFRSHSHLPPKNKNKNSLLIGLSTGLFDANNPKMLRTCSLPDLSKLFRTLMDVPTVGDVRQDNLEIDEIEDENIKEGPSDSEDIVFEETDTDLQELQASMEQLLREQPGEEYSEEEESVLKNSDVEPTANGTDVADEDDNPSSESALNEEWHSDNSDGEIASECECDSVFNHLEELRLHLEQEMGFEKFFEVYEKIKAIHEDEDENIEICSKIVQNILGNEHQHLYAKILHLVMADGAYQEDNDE
Description: Selectivity interaction (ProQinase) EUB0000171b NEK1.

For experiment [2], the target named is MAP/microtubule affinity-regulating kinase 3 (Homo sapiens) (UniProt P27448). Description: Selectivity interaction (Kinase panel (DSF assay)) EUB0001558a MARK3.
Experiment [3] concerns the target Calcium/calmodulin-dependent protein kinase type 1G (Homo sapiens) (UniProt Q96NX5). Description: Selectivity interaction (Ambit KINOMEscan and KiNATiv profiling in Jurkat cells) EUB0000090b CAMK1G. Type of experiment: cell-based. The note with it: at 1 µM.
The target in experiment [4] is Epithelial discoidin domain-containing receptor 1 (Homo sapiens) (UniProt Q08345). The experiment is described as follows: Selectivity interaction (KinomeScan (DiscoverX)) EUB0001079a DDR1. The note with it: at 1 µM.
Experiment [5] addresses Dual specificity mitogen-activated protein kinase kinase 2 (Homo sapiens) (UniProt P36507). The experiment is described as follows: Selectivity interaction (KinomeScan (DiscoverX)) EUB0001079a MAP2K2. The note with it: at 1 µM.
In experiment [6] the target is Cyclin-dependent kinase 5 (Homo sapiens, UniProt Q00535). The experiment is described as follows: Selectivity interaction (KinomeScan (DiscoverX)) EUB0000092b CDK5. The conditions noted are these: at 10 µM.
The target in experiment [7] is Mitogen-activated protein kinase kinase kinase kinase 1 (Homo sapiens) (UniProt Q92918). The experiment is described as follows: Selectivity interaction (KinomeScan (DiscoverX)) EUB0001049a MAP4K1. The note with it: at 1 µM.
In experiment [8] the target is Epidermal growth factor receptor (Homo sapiens, UniProt P00533). Description: Selectivity interaction (Kinase screening (Nanosyn)) EUB0000604a EGFR.
The target of a further experiment is Activated CDC42 kinase 1 (Homo sapiens, UniProt Q07912). The experiment is described as follows: Selectivity interaction (LanthaScreen Eu Kinase Binding Assay) EUB0001632a TNK2. The conditions noted are these: at 10 µM.
Experiment [9] addresses LIM domain kinase 1 (Homo sapiens) (UniProt P53667). The experiment is described as follows: Selectivity interaction (LanthaScreen Eu Kinase Binding Assay) EUB0001632a LIMK1. The conditions noted are these: at 10 µM.
The target of experiment [10] is T2, Dual specificity mitogen-activated protein kinase kinase 4 (Homo sapiens) (UniProt P45985).
T2 sequence (whole entry): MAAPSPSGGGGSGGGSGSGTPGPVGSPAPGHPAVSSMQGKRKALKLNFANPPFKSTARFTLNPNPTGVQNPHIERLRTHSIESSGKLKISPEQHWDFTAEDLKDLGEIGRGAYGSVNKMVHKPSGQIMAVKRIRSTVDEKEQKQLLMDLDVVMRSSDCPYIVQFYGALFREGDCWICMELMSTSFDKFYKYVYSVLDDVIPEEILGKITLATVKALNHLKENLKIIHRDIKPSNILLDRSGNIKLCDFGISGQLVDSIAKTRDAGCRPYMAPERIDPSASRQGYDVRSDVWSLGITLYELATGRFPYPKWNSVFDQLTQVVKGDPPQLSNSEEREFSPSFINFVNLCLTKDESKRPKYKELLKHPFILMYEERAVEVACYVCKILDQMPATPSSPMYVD
The experiment is described as follows: Selectivity interaction (ActivX KiNativ screen (kinase selectivity in THP-1 cell lysates)) EUB0000639a MAP2K4. Type of experiment: subcellular. The note with it: lysate, at 1 µM.

Experiment [11] concerns the target T3, Serine/threonine-protein kinase Nek2 (Homo sapiens) (UniProt P51955).
T3 sequence (whole entry): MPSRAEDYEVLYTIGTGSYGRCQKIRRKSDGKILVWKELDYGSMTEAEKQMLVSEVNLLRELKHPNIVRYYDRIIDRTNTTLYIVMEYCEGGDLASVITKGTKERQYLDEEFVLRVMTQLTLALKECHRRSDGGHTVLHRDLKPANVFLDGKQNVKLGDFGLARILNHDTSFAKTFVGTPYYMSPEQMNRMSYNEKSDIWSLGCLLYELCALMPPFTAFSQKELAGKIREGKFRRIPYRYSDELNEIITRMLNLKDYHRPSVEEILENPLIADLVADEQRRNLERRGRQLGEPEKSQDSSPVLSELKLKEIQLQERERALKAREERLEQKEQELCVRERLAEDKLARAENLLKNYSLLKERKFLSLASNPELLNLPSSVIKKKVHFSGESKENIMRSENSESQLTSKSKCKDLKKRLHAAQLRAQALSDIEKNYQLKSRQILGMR
The experiment is described as follows: Selectivity interaction (KinomeScan (DiscoverX)) EUB0000229b NEK2. The note with it: at 10 µM.

Experiment [12] addresses Cyclin-dependent kinase 11A (Homo sapiens, UniProt Q9UQ88). Description: Selectivity interaction (Kinase panel (Invitrogen, enzymatic assay)) EUB0000162b CDK11A.

Dual specificity mitogen-activated protein kinase kinase 2 (Homo sapiens), sequence (P36507 whole entry): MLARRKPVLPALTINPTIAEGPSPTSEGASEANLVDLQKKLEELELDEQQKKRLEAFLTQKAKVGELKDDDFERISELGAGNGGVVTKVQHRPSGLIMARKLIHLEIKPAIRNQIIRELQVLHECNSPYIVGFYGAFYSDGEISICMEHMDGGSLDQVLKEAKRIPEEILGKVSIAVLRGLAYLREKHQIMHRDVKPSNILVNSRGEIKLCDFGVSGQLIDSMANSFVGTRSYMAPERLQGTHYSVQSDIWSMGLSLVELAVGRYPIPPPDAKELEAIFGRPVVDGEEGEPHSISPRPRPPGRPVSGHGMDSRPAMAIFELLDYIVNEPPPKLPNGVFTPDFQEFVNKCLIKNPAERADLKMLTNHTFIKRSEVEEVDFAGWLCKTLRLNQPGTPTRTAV
Epidermal growth factor receptor, sequence (P00533 whole entry): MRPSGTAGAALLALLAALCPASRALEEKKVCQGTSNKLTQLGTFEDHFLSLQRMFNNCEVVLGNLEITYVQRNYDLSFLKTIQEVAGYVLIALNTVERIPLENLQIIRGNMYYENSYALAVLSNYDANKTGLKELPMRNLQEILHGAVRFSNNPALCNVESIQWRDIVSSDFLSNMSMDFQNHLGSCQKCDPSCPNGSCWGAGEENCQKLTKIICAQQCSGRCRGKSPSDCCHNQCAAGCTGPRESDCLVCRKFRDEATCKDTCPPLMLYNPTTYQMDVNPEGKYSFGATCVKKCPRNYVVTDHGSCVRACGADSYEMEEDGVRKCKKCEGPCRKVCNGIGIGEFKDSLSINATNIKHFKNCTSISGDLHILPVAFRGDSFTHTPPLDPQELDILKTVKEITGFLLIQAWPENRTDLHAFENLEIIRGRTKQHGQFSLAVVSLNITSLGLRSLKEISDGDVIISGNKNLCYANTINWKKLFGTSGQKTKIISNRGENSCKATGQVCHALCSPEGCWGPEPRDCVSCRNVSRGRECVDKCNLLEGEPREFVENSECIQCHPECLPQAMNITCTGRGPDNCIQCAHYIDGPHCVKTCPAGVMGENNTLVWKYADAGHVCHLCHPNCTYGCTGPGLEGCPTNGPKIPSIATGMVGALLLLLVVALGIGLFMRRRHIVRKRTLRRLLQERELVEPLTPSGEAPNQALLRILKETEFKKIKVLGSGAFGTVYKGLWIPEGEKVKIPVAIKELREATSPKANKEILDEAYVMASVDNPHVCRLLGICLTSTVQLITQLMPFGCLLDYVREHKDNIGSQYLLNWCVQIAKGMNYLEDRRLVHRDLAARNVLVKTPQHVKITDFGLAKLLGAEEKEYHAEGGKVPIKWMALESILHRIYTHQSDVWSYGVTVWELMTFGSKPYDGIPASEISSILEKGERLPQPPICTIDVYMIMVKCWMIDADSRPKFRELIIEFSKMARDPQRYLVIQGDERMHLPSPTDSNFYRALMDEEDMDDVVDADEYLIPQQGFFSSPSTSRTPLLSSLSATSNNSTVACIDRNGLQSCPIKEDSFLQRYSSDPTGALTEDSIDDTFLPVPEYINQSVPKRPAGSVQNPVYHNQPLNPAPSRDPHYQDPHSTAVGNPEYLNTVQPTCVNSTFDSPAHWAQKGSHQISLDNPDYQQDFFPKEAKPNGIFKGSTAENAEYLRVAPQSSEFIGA
Epithelial discoidin domain-containing receptor 1 (Homo sapiens), sequence (Q08345 whole entry, the tested form may be a part): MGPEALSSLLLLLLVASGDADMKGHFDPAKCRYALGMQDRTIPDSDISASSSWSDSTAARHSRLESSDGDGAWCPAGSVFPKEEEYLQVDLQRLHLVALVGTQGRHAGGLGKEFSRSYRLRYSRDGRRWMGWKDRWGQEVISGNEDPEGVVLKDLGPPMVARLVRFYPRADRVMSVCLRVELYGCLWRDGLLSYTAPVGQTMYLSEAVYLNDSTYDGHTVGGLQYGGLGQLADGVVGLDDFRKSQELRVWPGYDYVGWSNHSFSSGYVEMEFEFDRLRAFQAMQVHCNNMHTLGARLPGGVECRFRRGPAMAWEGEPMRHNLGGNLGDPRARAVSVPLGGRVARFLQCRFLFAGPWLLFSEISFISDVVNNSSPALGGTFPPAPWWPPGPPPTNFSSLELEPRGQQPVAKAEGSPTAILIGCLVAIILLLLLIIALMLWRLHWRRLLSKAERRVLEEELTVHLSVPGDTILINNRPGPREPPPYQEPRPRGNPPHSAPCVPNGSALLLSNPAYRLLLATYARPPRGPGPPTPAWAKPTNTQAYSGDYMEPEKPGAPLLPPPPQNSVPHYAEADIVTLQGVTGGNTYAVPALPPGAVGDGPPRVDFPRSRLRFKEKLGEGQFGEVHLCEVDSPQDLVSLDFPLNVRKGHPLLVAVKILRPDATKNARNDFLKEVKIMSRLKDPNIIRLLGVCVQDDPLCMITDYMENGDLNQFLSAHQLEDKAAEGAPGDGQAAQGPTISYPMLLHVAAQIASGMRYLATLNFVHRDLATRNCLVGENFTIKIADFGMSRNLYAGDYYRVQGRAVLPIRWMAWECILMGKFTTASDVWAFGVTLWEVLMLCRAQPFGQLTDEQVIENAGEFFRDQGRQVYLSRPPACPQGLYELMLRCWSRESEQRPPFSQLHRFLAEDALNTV
Activated CDC42 kinase 1, sequence (Q07912 whole entry, looked up, the tested form may be a part): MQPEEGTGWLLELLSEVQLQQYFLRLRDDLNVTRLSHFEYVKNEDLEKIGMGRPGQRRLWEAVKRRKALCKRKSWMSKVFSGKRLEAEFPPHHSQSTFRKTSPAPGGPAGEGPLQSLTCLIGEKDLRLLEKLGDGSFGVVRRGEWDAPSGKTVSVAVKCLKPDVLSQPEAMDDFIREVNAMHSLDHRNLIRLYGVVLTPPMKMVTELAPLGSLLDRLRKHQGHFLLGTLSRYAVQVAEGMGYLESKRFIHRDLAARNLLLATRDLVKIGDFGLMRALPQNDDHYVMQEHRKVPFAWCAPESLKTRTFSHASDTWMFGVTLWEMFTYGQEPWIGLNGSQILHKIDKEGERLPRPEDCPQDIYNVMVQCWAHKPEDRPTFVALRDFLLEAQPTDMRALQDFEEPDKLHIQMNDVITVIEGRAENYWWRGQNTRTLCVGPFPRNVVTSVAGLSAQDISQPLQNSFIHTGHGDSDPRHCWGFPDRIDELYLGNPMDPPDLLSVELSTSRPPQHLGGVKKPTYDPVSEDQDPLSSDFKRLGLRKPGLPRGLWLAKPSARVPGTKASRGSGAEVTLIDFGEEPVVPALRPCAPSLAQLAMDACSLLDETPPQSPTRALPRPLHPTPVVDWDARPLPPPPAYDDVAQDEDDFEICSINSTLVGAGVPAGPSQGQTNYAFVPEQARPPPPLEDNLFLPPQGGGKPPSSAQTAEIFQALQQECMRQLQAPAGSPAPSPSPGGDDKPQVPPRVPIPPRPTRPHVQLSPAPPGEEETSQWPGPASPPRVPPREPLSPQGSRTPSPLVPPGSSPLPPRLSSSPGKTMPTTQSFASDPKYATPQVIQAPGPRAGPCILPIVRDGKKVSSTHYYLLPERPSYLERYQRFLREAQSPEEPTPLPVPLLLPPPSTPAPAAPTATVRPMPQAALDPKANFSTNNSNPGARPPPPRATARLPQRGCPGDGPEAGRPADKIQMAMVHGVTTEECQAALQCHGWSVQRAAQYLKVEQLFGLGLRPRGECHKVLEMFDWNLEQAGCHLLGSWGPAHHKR
MAP/microtubule affinity-regulating kinase 3 (Homo sapiens), sequence (P27448 whole entry, looked up): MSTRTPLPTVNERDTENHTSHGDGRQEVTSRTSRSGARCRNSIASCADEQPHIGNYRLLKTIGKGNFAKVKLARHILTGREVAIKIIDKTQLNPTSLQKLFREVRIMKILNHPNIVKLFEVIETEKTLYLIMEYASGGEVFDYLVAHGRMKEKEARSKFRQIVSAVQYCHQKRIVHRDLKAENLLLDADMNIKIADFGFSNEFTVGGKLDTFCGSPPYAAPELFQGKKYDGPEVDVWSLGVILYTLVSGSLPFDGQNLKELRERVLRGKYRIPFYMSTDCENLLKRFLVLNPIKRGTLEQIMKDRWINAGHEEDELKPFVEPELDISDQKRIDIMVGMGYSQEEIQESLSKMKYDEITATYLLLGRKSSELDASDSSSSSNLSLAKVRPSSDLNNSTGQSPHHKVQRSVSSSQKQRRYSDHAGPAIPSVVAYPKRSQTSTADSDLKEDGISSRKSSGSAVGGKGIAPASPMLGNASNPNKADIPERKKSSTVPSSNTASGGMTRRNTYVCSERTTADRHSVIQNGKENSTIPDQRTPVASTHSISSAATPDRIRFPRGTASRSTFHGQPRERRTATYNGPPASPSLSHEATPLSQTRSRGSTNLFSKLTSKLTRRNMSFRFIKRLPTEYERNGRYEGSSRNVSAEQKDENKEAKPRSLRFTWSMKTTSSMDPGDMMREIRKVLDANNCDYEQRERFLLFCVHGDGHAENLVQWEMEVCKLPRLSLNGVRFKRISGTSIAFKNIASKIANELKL
Cyclin-dependent kinase 5, sequence (Q00535 whole entry, looked up): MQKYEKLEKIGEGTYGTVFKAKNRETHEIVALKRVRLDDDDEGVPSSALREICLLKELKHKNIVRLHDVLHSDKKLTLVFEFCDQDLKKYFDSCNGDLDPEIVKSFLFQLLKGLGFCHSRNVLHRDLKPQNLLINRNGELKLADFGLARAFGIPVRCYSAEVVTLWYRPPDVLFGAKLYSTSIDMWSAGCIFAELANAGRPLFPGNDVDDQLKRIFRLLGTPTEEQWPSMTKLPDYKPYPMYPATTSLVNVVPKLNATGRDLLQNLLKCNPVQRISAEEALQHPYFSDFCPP

For `C=CC(=O)Nc1cccc(C(=O)Nc2ccc(Nc3cc(-c4[nH]c(SC)nc4C)ccn3)cc2)c1`, the % of control was determined as 80% in experiment [1] (at 1 µM) and 64% in [1] (at 5 µM).

In the case of `CC(C)(O)[C@H](F)CN1Cc2cc(NC(=O)c3cnn4cccnc34)c(N3CCOCC3)cc2C1=O`, the dTM in [2] was determined as 1.9 K.

In the case of `CN(C)C/C=C/C(=O)Nc1ccc(C(=O)N2CCCC(Nc3ncc(Cl)c(-c4c[nH]c5ccccc45)n3)C2)cc1` (centres undefined), the % of control in experiment [3] is 81%.

As to `Nc1cnc(N2CCc3cc(S(=O)(=O)Nc4c(F)cc(Cl)cc4F)cc(N4CCCC4=O)c32)nc1` [TP-020n], the % of control in experiment [4] came out at 100%; in experiment [5] it was 92%.

In the case of `CCC(=O)N1CCN(c2ccc(-n3c(=O)ccc4cnc5ccc(-c6cnc7ccccc7c6)cc5c43)cc2C(F)(F)F)CC1`, in experiment [6], the % of control was 100%.

`COc1cc(Nc2nc(C)cc(-c3cnn4nc(OC)ccc34)n2)cc(C(F)(F)F)c1`: the % of control in [7] came to 86%.

Regarding `Cc1cnc(Nc2ccc(F)cc2Cl)nc1-c1c[nH]c(C(=O)N[C@H](CO)c2cccc(Cl)c2)c1`, the % of inhibition in [8] amounted to 6%.

For the compound `Cn1cc(-n2cnc3c(NCc4nc5cc(Cl)c(Cl)cc5[nH]4)nc(N4CCOCC4)nc32)cn1`, the results for the % of inhibition (at Activated CDC42 kinase 1; in [9]) were -5.62% and -36.5%, respectively.

In the case of `CC[C@@H]1[C@H](F)C(=O)N[C@@H]1COc1nccc2cc(C(N)=O)c(OC)cc12` [ZIMLOVISERTIB], the % of inhibition in [10] was found to be 17.3%.

`COc1cc(N(C)c2ccnc3ccc(C(F)(F)F)cc23)cc(OC)c1OC` yielded a % binding in experiment [11] of 92%.

As to `CN(C)C(=O)Cn1cc(-c2ccc(-c3cncc4ccccc34)cc2)cn1`, the IC50 in experiment [12] was 1.7 nM.
